Data published in paper PMC10671050, “Alkyl Derivatives of Perylene Photosensitizing Antivirals: Towards Understanding the Influence of Lipophilicity” (International Journal of Molecular Sciences, 2023).
≈ marks a conversion by molar mass, not a printed value. Entries after “also recorded” stand apart in the source; their conditions may differ. Where two headings read alike, the source gives them in different places.

How the values were obtained:
[1] = type: physicochemical; details: methanol, DPBF trap, 450–470 nm, relative to riboflavin
VSV Indiana strain = experiment: microbe, parasite or virus in culture; type: cell-based, vesicular stomatitis Indiana virus; details: Vesicular stomatitis virus, HEK-293T, 1 h, read-out: VSV, EC50
HSV-1, strain MacIntyre [2] = experiment: Photodynamic inactivation of HSV-1 (virus treated with compound, plaque assay); type: cell-based, herpes simplex virus-1; details: for EC50: HSV-1 10^4 PFU/mL, plaque assay
[3] = Solubilization in 15% DMSO in water; details: aqueous with cosolvent or surfactant or cyclodextrin, kinetic from dmso stock
Procedure: To perform this measurement, the compound was dissolved in DMSO and then diluted with water to achieve a solution containing 15% DMSO. The solution was centrifuged, and the resulting supernatant was lyophilized (evaporated) to dryness. Subsequently, the dry residue was dissolved in DMSO, and the concentration of the compound dissolved in DMSO was determined spectrophotometrically.
The mixtures were then centrifuged at 20,000 rcf for 5 min; 500 μL of the supernatant were collected and lyophilized; 76 µL of DMSO were added to the dry residue, and the absorbance was measured at the maximum absorption wavelength for compounds in solutions diluted 200 times with methanol. The data obtained were recalculated according to the law of dilutions and Beer’s law to obtain the initial concentrations of the compounds solubilized in 15% DMSO in water.

HSV-1, strain MacIntyre [4] = experiment: HSV-1 titer reduction assay in Vero cells; details: 48 h; for viral replication and spread in HSV-1-infected Vero cell culture: inside cell culture (Figure 6C)
[5] = Human alphaherpesvirus 1, 10 min, blue light 465–480 nm, 30 mW/cm^2, 10 min, read-out: EC50 (µM) under Blue Light
[6] = 10 µM, viral titer in medium supernatant
[7] = Human alphaherpesvirus 1, 10 min, 10 min in daylight, read-out: EC50 (µM) in Daylight

Compound | 1O2 Quantum Yield [1] [%] | EC50 (VSV Indiana strain) [nM] | EC50 (HSV-1, strain MacIntyre [2]; [5]) [µM] | solubility [3] [µM] | anti-HSV-1 activity in Vero cells (HSV-1, strain MacIntyre [4]; [6]) | other results
O=c1[nH]c(=O)n([C@@H]2O[C@H](CO)[C@@H](O)[C@@H]2O)cc1C#Cc1ccc2c3cccc4cccc(c5cccc1c52)c43 [Compound 9, reference compound] | 40.1 ± 4.0 | < 10000 | – | – | – | –
O=c1[nH]c(=O)n([C@@H]2O[C@H](CO)[C@@H](O)[C@H]2O)cc1C#Cc1ccc2c3cccc4cccc(c5cccc1c52)c43 [Compound 10, reference compound] | 33.6 ± 1.2 | < 10000 | 0.116 | – | – | –
CCCCCCCCc1ccc2c3cccc4c(C#Cc5cn([C@@H]6O[C@H](CO)[C@@H](O)[C@H]6O)c(=O)[nH]c5=O)ccc(c5cccc1c52)c43 [Compound 10b, 5-[9(10)-Octylperylen-3-ylethynyl]-ribo-uridine] | 19.2 ± 1.5 | > 200000 | – | 0.59 (≈ 0.372 µg/mL) | only moderately active | HSV-1-inactivating effect after blue light irradiation (HSV-1, strain MacIntyre [2]; 10 µM, blue light): complete inactivation of HSV-1
CCCCCCCCCCCCc1ccc2c3cccc4c(C#Cc5cn([C@@H]6O[C@H](CO)[C@@H](O)[C@H]6O)c(=O)[nH]c5=O)ccc(c5cccc1c52)c43 [Compound 10c, 5-[9(10)-Dodecylperylen-3-ylethynyl]-ribo-uridine] | 28.7 ± 8.6 | > 200000 | – | 0.24 (≈ 0.165 µg/mL) | completely inactive | –
O=c1[nH]c(=O)n([C@H]2C[C@H](O)[C@@H](CO)O2)cc1C#Cc1ccc2c3cccc4cccc(c5cccc1c52)c43 [Compound 11, reference compound] | 38.6 ± 0.8 | < 10000 | – | – | – | –
O=C(O)c1ccc(-c2ccc3c4cccc5cccc(c6cccc2c63)c54)s1 [Compound 15, 5-(perylene-3-yl)thiophenecarboxylic acid, reference compound] | 73.2 ± 8.9 | < 10000 | 0.038 | – | – | –
CCCCc1ccc2c3cccc4c(-c5ccc(C(=O)O)s5)ccc(c5cccc1c25)c43 [Compound 15a, 5-[9(10)-Butylperylen-3-yl]thiophene-2-carboxylic acid] | 91.6 ± 0.2 | 200 ± 200 | ~0.1 | 0.11 (≈ 0.0478 µg/mL) | complete inhibition; also recorded: higher antiviral potency compared to acyclovir | Decrease in EC50 (Fold) (HSV-1, strain MacIntyre [2]): 5.4 fold; fold less active than non-alkylated counterparts (12, 15) (HSV-1, strain MacIntyre [2]): ~3 fold; EC50 (HSV-1, strain MacIntyre [2]; 10 min in daylight, read-out: EC50 (µM) in Daylight): 0.608 µM; EC50 (HSV-1, strain MacIntyre [2]; blue light 465–480 nm, 30 mW/cm^2, 10 min, read-out: EC50 (µM) under Blue Light): 0.112 µM; EC50 (HSV-1, strain MacIntyre [2]; [7]): 0.61 µM; viral replication and spread in HSV-1-infected Vero cell culture (HSV-1, strain MacIntyre [4]; 10 µM): did not suppress viral replication and spread
CCCCCCCCc1ccc2c3cccc4c(-c5ccc(C(=O)O)s5)ccc(c5cccc1c25)c43 [Compound 15b, 5-[9(10)-Octylperylen-3-yl]thiophene-2-carboxylic acid] | 72.9 ± 5.6 | 10000 to 200000 | 2.89 | 0.1 (≈ 0.0491 µg/mL) | complete inhibition; also recorded: higher antiviral potency compared to acyclovir | Decrease in EC50 (Fold) (HSV-1, strain MacIntyre [2]): >3.5 fold; fold less active than non-alkylated counterparts (12, 15) (HSV-1, strain MacIntyre [2]): ~3 fold; HSV-1-inactivating effect in daylight (HSV-1, strain MacIntyre [2]; 0–10 µM, daylight): only partial or no viral inactivation; also recorded: no virus-inactivating effect; EC50 (HSV-1, strain MacIntyre [2]; [7]): > 10 µM; viral replication and spread in HSV-1-infected Vero cell culture (HSV-1, strain MacIntyre [4]; 10 µM): did not suppress viral replication and spread
Nc1nc2c(ncn2COCCO)c(=O)[nH]1 [acyclovir, reference compound] | – | – | – | – | – | anti-HSV-1 activity in Vero cells (HSV-1, strain MacIntyre [4]; 50 µM): completely inhibited HSV-1 replication
